From patent publication US6509163B1, “Methods of screening modulators of mammalian P2X7 purinergic receptors” (Glaxo Group Limited, priority 1997, dated 2003)

Tests used:
P2X7 receptor = molecular target: T1, P2X7 receptor (Rattus norvegicus, UniProt Q64663); assay: YO-PRO-1 uptake, cell counts, in HEK cells stably expressing P2X7 receptor; format: cell-based; conditions: incubation with BzATP for 3 to 5 min, low concentration of divalent cations
T1 construct: yielding a construct that encoded the entire P2X7 protein; expressed in transfected cells
T1 sequence (Q64663 1-595): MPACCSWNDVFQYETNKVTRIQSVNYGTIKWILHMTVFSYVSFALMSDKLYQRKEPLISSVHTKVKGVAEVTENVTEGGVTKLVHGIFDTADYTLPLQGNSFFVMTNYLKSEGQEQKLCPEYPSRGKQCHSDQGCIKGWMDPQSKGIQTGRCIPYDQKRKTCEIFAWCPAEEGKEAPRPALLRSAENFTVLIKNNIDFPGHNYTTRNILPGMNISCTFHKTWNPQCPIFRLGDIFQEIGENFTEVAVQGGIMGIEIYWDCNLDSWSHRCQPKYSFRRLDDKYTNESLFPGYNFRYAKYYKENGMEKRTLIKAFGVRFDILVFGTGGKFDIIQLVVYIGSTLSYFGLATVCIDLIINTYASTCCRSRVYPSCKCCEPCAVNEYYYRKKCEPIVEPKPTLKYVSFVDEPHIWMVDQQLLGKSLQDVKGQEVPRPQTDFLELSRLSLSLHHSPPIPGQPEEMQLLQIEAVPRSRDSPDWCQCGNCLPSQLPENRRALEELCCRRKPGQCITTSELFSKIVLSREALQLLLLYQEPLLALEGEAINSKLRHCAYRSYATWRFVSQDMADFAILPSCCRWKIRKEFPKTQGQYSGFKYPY
Procedure: YO-PRO-1 (10 μM; Molecular Probes, Eugene, Oreg.) was added to the superfusion fluid during electrophysiological recordings 3 to 6 min before switching to low divalent solution and washed out upon switching back to normal divalent solution, after which the fluorescent lamp was turned on and cells were examined with a fluorescein isothiocyanate filter. For cell counts, 500 cells per cover slip were counted in each case.

[1] = molecular target: T2, r-hP2X7 (rat 1-346, human 347-595) (Rattus norvegicus, UniProt Q64663, A359S/A378V/A493C/A522V/A540S/C350F/D413N/D475V/E375Q/E438D/E521H/E537D/E539D/G538V/H448D/I354L/I464K/I516L/I541T/K419R/K544R/K576R/L353F/L437T/L525F/M459I/N356D/N481S/N490S/P390S/P407S/Q433A/Q463R/Q505A/Q585E/R366H/R491H/R501K/S370W/S443P/S445A/S449T/S514R/S552C/T348A/T361N/T434M/T584S/V367I/V467T/V559G/W410R/Y593S); assay: Whole-cell recordings in HEK293 cells expressing chimeric r-hP2X7 receptors; format: cell-based; conditions: low divalent concentrations, after removal of BzATP, n=10
T2 construct: r-hP2X7 (rat 1-346, human 347-595); expressed in transfected cells; host or cells: HEK293 (transient)
T2 sequence (Q64663 1-595 T348A/C350F/L353F/I354L/N356D/A359S/T361N/R366H/V367I/S370W/E375Q/A378V/P390S/P407S/W410R/D413N/K419R/Q433A/T434M/L437T/E438D/S443P/S445A/H448D/S449T/M459I/Q463R/I464K/V467T/D475V/N481S/N490S/R491H/A493C/R501K/Q505A/S514R/I516L/E521H/A522V/L525F/E537D/G538V/E539D/A540S/I541T/K544R/S552C/V559G/K576R/T584S/Q585E/Y593S): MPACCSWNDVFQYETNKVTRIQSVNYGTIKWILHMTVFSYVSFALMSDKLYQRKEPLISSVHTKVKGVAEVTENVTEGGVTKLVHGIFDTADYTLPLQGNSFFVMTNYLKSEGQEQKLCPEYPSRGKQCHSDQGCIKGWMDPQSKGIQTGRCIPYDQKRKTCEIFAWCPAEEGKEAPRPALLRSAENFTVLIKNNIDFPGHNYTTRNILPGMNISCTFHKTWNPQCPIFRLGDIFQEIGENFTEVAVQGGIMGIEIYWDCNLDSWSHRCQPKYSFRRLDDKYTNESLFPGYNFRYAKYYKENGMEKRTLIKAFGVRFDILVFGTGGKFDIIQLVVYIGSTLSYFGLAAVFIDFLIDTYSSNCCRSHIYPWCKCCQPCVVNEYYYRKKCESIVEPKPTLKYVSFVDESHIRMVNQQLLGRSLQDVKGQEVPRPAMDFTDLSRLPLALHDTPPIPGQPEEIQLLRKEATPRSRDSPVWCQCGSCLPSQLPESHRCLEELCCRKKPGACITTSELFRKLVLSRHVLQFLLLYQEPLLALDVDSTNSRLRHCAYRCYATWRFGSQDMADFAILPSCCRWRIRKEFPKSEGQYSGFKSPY
Excerpt: Chimeras. A silent restriction site (NheI) was introduced at the equivalent positions in the rat and human cDNAs using the Pfu mutagenesis kit (Stratagene) (T to G at 1069 in rP2X7; G to A at 1072 in hP2X7) . A NheI-XhoI fragment corresponding to 3′ extremity of each cDNA was then excised and subcloned in the opposite plasmid (i.e. human 3′ end into rat background). The resulting chimeras were h-rP2X7 (human 1-346, rat 347-595) and r-hP2X7 (rat 1-346, human 347-595) (FIG. 5). All constructions were sequenced on their entire coding region.
Cell culture. HEK293 cells were transiently transfected with cDNA (1 μg/ml) and lipofectin dissolved in Optimem (GIBCO) placed into petri dishes containing four coverslips onto which cells were plated at a density of about 8×10^4/coverslip. Cells were washed 5 h later and normal DMEM applied. Electrophysiological studies or dye uptake measurements were carried out 18-49 h later. For each set of transfections, parallel experiments were performed on HEK cells transfected with cDNA encoding both rP2X7 and hP2X7 receptors.
Electrophysiological experiments. Whole-cell recordings were made using the EPC9 patch-clamp amplifier and Pulse acquisition programs (HEKA, Lambrecht, Germany). Patch pipettes (5-7 MΩ) contained (mM) CsCl or NaCl 154, EGTA 10, HEPES 5. […]

stably transfected cells that took up YO-PRO-1 (P2X7 receptor): > 85% | current measured at 30 s, of peak [1]: 31±3
Compound: Nc1ncnc2c1ncn2[C@@H]1O[C@H](COP(=O)(O)OP(=O)(O)OP(=O)(O)O)[C@@H](OC(=O)c2ccc(C(=O)c3ccccc3)cc2)[C@H]1O [BzATP, 3′-O-(4-benzoyl)benzoyl ATP]
